This assay deals with Methanococcus maripaludis. Nature of the assay: Inhibition of methane production by Methanococcus maripaludis culture (pressure drop by manometer after 24 h). The note with it: for % Inhibition Gas: 37° C. It is filed as cell-based. As for the experimental part:
For this experiment, bromoform was prepped at 100 mM by adding 8.75 μl bromoform to 991 μl DMSO. This was diluted 10x diluted to generate a 10 mM solution and further diluted to generate 0.12- and 0.156-mM stock solutions. Allicin stock solutions were prepared by adding 48.6 μl allicin to 951.4 μl DMSO to make a 300 mM stock solution and 32.5 μl allicin to 967.5 μl DMSO to make a 200 mM stock solution. The experiment was set up by adding 5 ml of M141 medium (https://www.dsmz.de/microorganisms/medium/pdf/DSMZ_Medium141.pdf) to a screw cap Hungate tube followed by the addition of 5 μl allicin and/or 5 μl bromoform or 10 μl DMSO as follows: • Tube 1: DMSO (10 μl) • Tube 2: Bromoform (5 μl 0.120 mM) (120 nM final)+5 μl DMSO • Tube 3: Bromoform (5 μl 0.156 mM) (156 nM final)+5 μl DMSO • Tube 4: Allicin (5 μl 200 mM) (200 μM final)+5 μl DMSO • Tube 5: Allicin (5 μl 300 mM) (300 μM final)+5 μl DMSO • Tube 6: Bromoform (5 μl 0.120 mM) (120 nM final)+Allicin (5 μl 200 mM) (200 μM final) • Tube 7: Bromoform (5 μl 0.120 mM) (120 nM final)+Allicin (5 μl 300 mM) (300 μM final) • Tube 8: Bromoform (5 μl 0.156 mM) (156 nM final)+Allicin (5 μl 200 mM) (200 μM final) • Tube 9: Bromoform (5 μl 0.156 mM) (156 nM final)+Allicin (5 μl 300 mM) (300 μM final)
After the addition of the test substances, 500 μl of an overnight M. maripaludis culture was added to each reaction tube. Each tube was gassed with 80% H2/20% CO2 to 240 kPa and incubated at 37° C. for 24 h.
After the 24 h incubation the pressure inside the tube was measured using a manometer. Given that 5 moles of H2/CO2 are consumed to generate 1 mole of CH4 the drop in pressure observed was used to calculate the amount of methane by the control and test reactions from which a percent inhibition was calculated.
For this experiment, bromoform was prepped at 100 mM by adding 8.75 μl bromoform to 991 μl DMSO. This was diluted 10× diluted to generate a 10 mM solution and further diluted to generate 0.10- and 0.156-mM stock solutions. The sample was prepared by adding 245 mg NXRH214 powder to 35 ml M141 medium (https://www.dsmz.de/microorganisms/medium/pdf/DSMZ_Medium141.pdf) to generate a 7 mg/ml stock solution. NXRH214 powder is a garlic powder (allicin) and citrus extract (polyphenol flavonoid mix) with a ratio of 93:7, where the flavonoid mix comprises mainly naringin and neohesperidin.

Setting [1] is: Methanococcus maripaludis, read-out: % Inhibition Gas.

As for `C=CCS[S@@+]([O-])CC=C` (stereo in doubt) [Allicin, allicin], the “% Inhibition Gas” value is, setting by setting: (Allicin 200 μM with DMSO) 0%; (Allicin 300 μM with DMSO) 19%.
As for `BrC(Br)Br` [Bromoform, bromoform], under setting [1], the inhibition (usually the relative decrease from the control value, in per cent) at 0.1 µM amounted to 0% and the inhibition at 0.156 µM turned out to be 0.5%.
